Source: PMC8453936, “Development and in vitro Profiling of Dual FXR/LTA4H Modulators” (Chemmedchem, 2021)
Like-named read-outs stand apart in the source and are kept apart here.

Experiments:
recombinant human LTA4H [1] = target: T1, recombinant human LTA4H (Homo sapiens, UniProt P09960); assay: Isothermal titration calorimetry on LTA4H; design: His-tag (inferred from IMAC on HisTrap); made in house; host or cells: E. coli BL21(DE3)RIPL-Codon Plus; conditions: ITC, 25 °C, 1:1 binding assumed
T1 sequence (P09960 1-611): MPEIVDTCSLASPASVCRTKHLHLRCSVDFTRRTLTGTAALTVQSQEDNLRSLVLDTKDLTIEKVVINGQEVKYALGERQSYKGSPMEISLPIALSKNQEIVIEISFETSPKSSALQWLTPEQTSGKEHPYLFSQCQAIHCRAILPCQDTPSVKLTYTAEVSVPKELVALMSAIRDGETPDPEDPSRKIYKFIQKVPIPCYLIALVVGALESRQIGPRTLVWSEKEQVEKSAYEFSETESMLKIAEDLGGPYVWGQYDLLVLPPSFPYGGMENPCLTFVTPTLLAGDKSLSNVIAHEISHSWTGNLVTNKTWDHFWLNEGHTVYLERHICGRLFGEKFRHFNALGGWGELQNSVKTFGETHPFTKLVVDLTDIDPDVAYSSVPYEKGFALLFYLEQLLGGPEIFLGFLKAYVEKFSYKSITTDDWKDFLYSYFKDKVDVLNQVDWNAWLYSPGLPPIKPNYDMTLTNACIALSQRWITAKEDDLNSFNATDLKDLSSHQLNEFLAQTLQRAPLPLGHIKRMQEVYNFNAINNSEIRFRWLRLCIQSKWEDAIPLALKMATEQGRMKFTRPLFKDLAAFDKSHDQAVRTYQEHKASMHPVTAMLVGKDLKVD

full-length human FXR [2] = target: T2, full-length human FXR (Homo sapiens, UniProt Q96RI1); assay: Full-length FXR:RXR reporter gene assay (BSEP promoter, HeLa, transiently transfected); format: cell-based; conditions: mean±S.E.M., n≥3
T2 construct: coding for the full‐length human nuclear receptors FXR and RXRα; expressed in transfected cells; host or cells: HeLa
T2 sequence (Q96RI1 1-486): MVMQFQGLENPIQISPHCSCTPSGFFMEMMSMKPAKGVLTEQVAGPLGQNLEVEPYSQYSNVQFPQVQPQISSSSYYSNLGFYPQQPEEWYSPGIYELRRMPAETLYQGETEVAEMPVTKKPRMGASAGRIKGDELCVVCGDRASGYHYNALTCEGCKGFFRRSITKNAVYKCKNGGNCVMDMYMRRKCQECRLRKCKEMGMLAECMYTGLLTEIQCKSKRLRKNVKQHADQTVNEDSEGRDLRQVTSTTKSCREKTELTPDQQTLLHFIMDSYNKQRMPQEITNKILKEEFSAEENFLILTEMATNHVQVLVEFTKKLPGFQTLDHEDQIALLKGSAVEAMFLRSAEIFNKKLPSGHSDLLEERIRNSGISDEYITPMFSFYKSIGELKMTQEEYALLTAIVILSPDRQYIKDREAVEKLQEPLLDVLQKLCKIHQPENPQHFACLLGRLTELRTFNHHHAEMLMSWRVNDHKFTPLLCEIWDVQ
T2 sequence (P19793 1-462 partner): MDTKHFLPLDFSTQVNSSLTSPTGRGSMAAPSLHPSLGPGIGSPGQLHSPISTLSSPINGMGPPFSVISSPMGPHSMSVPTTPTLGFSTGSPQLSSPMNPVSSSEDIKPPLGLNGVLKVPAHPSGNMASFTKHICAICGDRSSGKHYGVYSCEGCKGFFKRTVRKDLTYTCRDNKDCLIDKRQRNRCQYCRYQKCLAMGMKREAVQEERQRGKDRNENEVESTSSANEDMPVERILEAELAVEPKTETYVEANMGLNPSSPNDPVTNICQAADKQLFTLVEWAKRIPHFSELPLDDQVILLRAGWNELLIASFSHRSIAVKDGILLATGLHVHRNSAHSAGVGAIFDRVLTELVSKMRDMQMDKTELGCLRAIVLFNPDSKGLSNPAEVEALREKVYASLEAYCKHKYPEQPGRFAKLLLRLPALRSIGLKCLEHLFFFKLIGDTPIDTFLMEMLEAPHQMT
Description: Full‐length FXR:RXR reporter gene assay. HeLa cells were grown in DMEM high glucose supplemented with 10 % FCS, sodium pyruvate (1 mM), penicillin (100 U/mL) and streptomycin (100 μg/mL) at 37 °C and 5 % CO2 and seeded in 96‐well plates 24 h before transfection with a density of 8000 cells per well. 3.5 h before transfection, medium was changed to DMEM high glucose, supplemented with sodium pyruvate (1 mM), penicillin (100 U/mL), streptomycin (100 μg/mL) and 0.5 % charcoal‐stripped FCS. Cells were then transiently transfected with using the calcium phosphate transfection method with pGL3basic‐BSEP[26, 27] (containing a shortened construct of the promotor of the bile salt export protein (BSEP) cloned into the SacI/NheI cleavage site in front of the luciferase gene), pcDNA3‐hFXR[26] and pSG5‐hRXR[38] coding for the full‐length human nuclear receptors FXR and RXRα, and pRL‐SV40 (Promega) for normalization of transfection efficiency and cell growth. 16 h after transfection, medium was changed to DMEM high glucose, supplemented with sodium pyruvate (1 mM), penicillin (100 U/mL), streptomycin (100 μg/mL) and 0.5 % charcoal‐stripped FCS. 24 h after transfection, medium was changed to DMEM without phenol red, supplemented with sodium pyruvate (1 mM), penicillin (100 U/mL), streptomycin (100 μg/mL), L‐glutamine (2 mM) and 0.5 % charcoal‐stripped FCS, now additionally containing 0.1 % DMSO and the respective test compound or 0.1 % DMSO alone as untreated control. Each sample was tested in triplicate wells and each experiment was repeated independently at least three times. Following 24 h incubation with the test compounds, cells were assayed for luciferase activity using Dual‐Glo Luciferase Assay System (Promega) according to the manufacturer's protocol. Luminescence was measured with a Tecan Spark M luminometer (Tecan). Normalization of transfection efficiency and cell growth was done by division of firefly luciferase data by Renilla luciferase data multiplied by 1000 resulting in relative light units (RLU). Fold activation was obtained by dividing the mean RLU of the tested compound at a respective concentration by the mean RLU of untreated control. EC50 and standard error of the mean values were calculated with the mean fold activation values of at least three independent experiments with SigmaPlot 10.0 (Systat Software GmbH, Erkrath, Germany) using a four‐parameter logistic regression.

recombinant human LTA4H [3] = target: T1, recombinant human LTA4H; conditions: for LTA4H max. inhib.: LTA4H inhibition at the highest tested concentration (up to 100 μM), mean±S.E.M., n=3
Description: FXR modulation by 3–20 was characterized in a cellular (HeLa, transiently transfected) full‐length FXR reporter gene assay employing the human FXR response element from the promoter region of bile salt export protein (BSEP) to govern firefly luciferase expression as reporter gene.[26, 27] FXR and its natural heterodimer partner retinoid X receptor (RXR) were constitutively over‐expressed and a constitutively expressed renilla luciferase was present as internal control for transfection efficiency and cellular health.
LTA4H assay. […] The assay was performed in black polystyrol 96‐well plates in a final volume of 100 μL. Test compound solution in DMSO (1 μL) or DMSO alone as control were incubated with 89 μl protein mixture (containing LTA4H, buffer and Triton‐X‐100). After 30 min, 10 μl of substrate mixture (containing L‐arginin‐7‐amido‐4‐methylcumarine and DMSO in buffer) were added. […] A blank measurement containing no protein was performed and treated as 0 % conversion control. All samples were measured in triplicates and each experiment was conducted in three independent repeats.

full-length human FXR [4] = target: T2, full-length human FXR; conditions: mean±S.E.M., n≥3, previously reported, cited from earlier work
[5] = full-length FXR reporter gene assay, BSEP promoter, HeLa

| Kd (recombinant human LTA4H [1]) | IC50 (recombinant human LTA4H [3]) | LTA4H max. inhib. (recombinant human LTA4H [3]) | SMILES | FXR efficacy (maximum FXR activation relative to 3 μM GW4064) (full-length human FXR [2]; 3 μM GW4064 = 100 % activation) | EC50 (full-length human FXR [2]; [5]) | FXR efficacy (maximum FXR activation relative to 3 μM GW4064) (full-length human FXR [4]; 3 μM GW4064 = 100 % activation) | EC50 (full-length human FXR [4]; [5]) |
| --- | --- | --- | --- | --- | --- | --- | --- |
| ~700 nM | 450 ± 20 nM | 98.9±0.1% | O=C(O)c1ccnc(NC(=O)c2ccc(OCCCc3ccccc3)cc2)c1 [compound 19, 2‐(4‐(3‐Phenylpropoxy)benzamido)isonicotinic acid] | 21±1% | 460 ± 80 nM |  |  |
| ~300 nM | 140 ± 10 nM | 98.8±0.1% | O=C(O)c1cccc(NC(=O)c2ccc(OCCCc3ccccc3)cc2)c1 [compound 8] |  |  | 22±1% | 29 ± 6 nM |
